Experimental data from patent publication US11572353B2, “Alkynyl-substituted heterocyclic compound, preparation method therefor and medical use thereof” (BEIJING INNOCARE PHARMA TECH CO., LTD., priority 2016, dated 2023).

Columns and labels:
[1] = target: human recombinant FGFR1 catalytic domain protein (amino acid 308-731) (Homo sapiens (Human), UniProt P11362); assay: FGFR1 activity inhibition test (HTRF kinase assay); format: biochemical; conditions: 40 μM ATP
Protocol: (§1) The effect of the compounds of the present invention on the in vitro activity of FGFR was assessed by measuring the phosphorylation level of the substrate in a kinase reaction using the HTRF kinase assay kit (Table 1).
(§2) If the IC50 value of a compound is very low, the initial concentration of the compound can be lowered.
(§3) The IC50 value of the compound was calculated from the 10 concentration points using the XLfit software in Excel by the following formula: Y=Bottom+(Top−Bottom)/(1+10^((log IC50−X)*slope factor))
(§4) Where Y is the percentage of inhibition, Bottom is the bottom platform value of the S-curve, Top is the top platform value of the S-curve, X is the logarithm of the concentration of the compound to be tested, and slope factor is the slope coefficient of the curve.

[2] = target: human recombinant FGFR4 catalytic domain protein (amino acid 460-802) (Homo sapiens (Human), UniProt P22455); assay: FGFR4 activity inhibition test (HTRF kinase assay); format: biochemical; conditions: 90 μM ATP
Protocol: as §1, §2, §3, §4

Hep3B hepatoma cell line = assay: Inhibition on the proliferation of Hep3B cells (luminescent cell viability assay); format: cell-based; conditions: Homo sapiens, 72 hours
Protocol: The effect of the compounds of the present invention on cell proliferation of Hep3B hepatoma cell line was assessed using a luminescent cell viability assay (Table 2).
(§5) CellTilter-Glo reagent (Promega, Cat. No. G7572) consists of CTG lyophilized powder and CTG buffer. Before use, the lyophilized powder needs to be dissolved in the buffer.
(§6) After overnight incubation, 3 μL of DMEM diluted compound was added to each well, which was then gently centrifuged to mix well, and then the 384-well plate was placed in a 37° C., 5% CO2 incubator to continue the culture, and after 72 hours, the plate was taken out and allowed to stand at room temperature for 30 minutes, next added 15 μL of CTG reagent per well, which was warmed up to room temperature, the plate was shaken gently on a shaker for 3 minutes to ensure sufficient cell lysis, allowed to stand 10 minutes to stabilize the luminescence signal, and then read the luminescence signal with EnVision (Perkin Elmer).
as §4

[3] = tested on: RT4 bladder cancer cell line; assay: Inhibition on the proliferation of RT4 cells (luminescent cell viability assay); format: cell-based; conditions: Homo sapiens, RT-4, 72 hours
Protocol: as §5, §6, §4
The effect of the compounds of the present invention on cell proliferation of the RT4 bladder cancer cell line was assessed using a luminescent cell viability assay (Table 2).
(§7) For the experimental method, please refer to the method for determining the inhibition on the proliferation of Hep3B cells.

[4] = tested on: SNU-16 gastric cancer cell line; assay: Inhibition on the proliferation of SNU-16 cells (luminescent cell viability assay); format: cell-based; conditions: Homo sapiens, 72 hours
Protocol: as §5, §6, §4
The effect of the compounds of the present invention on cell proliferation of SNU-16 gastric cancer cell line was assessed using a luminescent cell viability assay (Table 2).
as §7

[5] = target: human recombinant FGFR2 catalytic domain protein (amino acid 400-821) (Homo sapiens (Human), UniProt P21802); assay: FGFR2 activity inhibition test (HTRF kinase assay); format: biochemical; conditions: 50 μM ATP
Protocol: as §1, §2, §3, §4

[6] = target: human recombinant FGFR3 catalytic domain protein (amino acid 399-806) (Homo sapiens (Human), UniProt P22607); assay: FGFR3 activity inhibition test (HTRF kinase assay); format: biochemical; conditions: 90 μM ATP
Protocol: as §1, §2, §3, §4

[7] = tested on: FGFR2-overexpressed SNU-16 gastric cancer cell line derived xenograft tumors; format: in vivo; conditions: 10 mg/kg oral BID
Protocol: The cells were harvested in 90% confluence and no less than 90% viability, and then counted. […] Mice were inoculated subcutaneously into the right flank with 200 uL of 8×10^6 SNU-16 cells resuspended in 50% Matrigel (purchased from Corning). […] Dosing was initiated on day 0 and effects on tumor growth were evaluated by measuring the percentage of tumor growth inhibition (TGI) at the end of the study. Tolerability was assessed by body weight loss, lethality, and clinical signs of adverse treatment-related side effects. Tumor volume and body weight were measured twice per week during the administration period. The percentage of TGI was determined on day 25 after treatment. The difference between the mean value of tumor volume in the treatment group and that in the vehicle group was analyzed for significance using one-way ANOVA (followed by Dennett's test) at each time point and a P<0.05 was considered to be statistically significant.

human recombinant FGFR2 catalytic domain protein (amino acid 400-821), sequence (P21802 400-821): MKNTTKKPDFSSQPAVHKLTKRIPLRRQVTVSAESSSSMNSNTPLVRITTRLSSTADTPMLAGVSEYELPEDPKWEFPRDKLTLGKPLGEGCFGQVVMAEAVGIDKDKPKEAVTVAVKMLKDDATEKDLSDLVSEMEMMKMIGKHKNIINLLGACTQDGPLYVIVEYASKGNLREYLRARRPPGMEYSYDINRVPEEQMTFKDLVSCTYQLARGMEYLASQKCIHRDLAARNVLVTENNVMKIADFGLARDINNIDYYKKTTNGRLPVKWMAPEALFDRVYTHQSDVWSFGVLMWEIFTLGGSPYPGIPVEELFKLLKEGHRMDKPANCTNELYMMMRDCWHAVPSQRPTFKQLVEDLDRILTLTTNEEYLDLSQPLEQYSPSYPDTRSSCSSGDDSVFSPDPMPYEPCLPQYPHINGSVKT
human recombinant FGFR4 catalytic domain protein (amino acid 460-802), sequence (P22455 460-802): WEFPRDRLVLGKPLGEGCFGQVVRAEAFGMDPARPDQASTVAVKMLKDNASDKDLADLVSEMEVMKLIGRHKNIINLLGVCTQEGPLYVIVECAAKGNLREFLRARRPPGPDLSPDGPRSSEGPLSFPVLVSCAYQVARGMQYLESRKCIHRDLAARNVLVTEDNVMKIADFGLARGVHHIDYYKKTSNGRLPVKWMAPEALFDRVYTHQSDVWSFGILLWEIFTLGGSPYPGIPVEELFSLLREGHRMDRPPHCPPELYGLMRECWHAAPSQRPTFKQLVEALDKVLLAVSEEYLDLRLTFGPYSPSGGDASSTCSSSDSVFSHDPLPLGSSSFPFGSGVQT
human recombinant FGFR3 catalytic domain protein (amino acid 399-806), sequence (P22607 399-806): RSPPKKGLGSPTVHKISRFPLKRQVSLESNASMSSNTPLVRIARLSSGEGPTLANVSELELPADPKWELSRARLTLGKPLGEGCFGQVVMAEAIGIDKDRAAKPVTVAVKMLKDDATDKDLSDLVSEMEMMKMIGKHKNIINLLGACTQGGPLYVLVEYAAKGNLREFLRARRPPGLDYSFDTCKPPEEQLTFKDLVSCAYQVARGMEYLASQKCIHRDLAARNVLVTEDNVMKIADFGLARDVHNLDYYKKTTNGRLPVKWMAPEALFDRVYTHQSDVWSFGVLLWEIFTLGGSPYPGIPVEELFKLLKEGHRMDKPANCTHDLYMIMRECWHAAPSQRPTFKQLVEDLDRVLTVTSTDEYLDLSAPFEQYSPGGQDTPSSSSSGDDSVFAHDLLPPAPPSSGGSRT
human recombinant FGFR1 catalytic domain protein (amino acid 308-731), sequence (P11362 other isoform, or with tags, fused parts or gaps): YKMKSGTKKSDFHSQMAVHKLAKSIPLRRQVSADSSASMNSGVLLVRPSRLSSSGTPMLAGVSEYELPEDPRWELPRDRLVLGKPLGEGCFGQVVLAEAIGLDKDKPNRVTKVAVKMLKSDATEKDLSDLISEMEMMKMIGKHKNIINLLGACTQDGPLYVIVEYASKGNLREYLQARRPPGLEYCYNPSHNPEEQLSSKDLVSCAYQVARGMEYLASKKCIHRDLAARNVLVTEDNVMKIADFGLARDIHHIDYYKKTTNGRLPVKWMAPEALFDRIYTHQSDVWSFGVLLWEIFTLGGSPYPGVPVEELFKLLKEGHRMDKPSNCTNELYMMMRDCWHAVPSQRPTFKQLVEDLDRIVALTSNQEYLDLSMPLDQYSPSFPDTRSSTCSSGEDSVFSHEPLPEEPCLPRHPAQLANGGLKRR

With CC#CC(=O)N1CC[C@H](n2nc(C#Cc3cc(OC)cc(OC)c3)c(C(N)=O)c2N)C1 [Compound 10] the IC50 [1] was 10 to 100 nM, the IC50 [2] was 10 to 100 nM and the IC50 (Hep3B hepatoma cell line) was 10 to 100 nM. For the same molecule, the IC50 [3] was 10 to 100 nM and the IC50 [4] was less than 10 nM.
C=CC(=O)N1CC[C@H](n2nc(C#Cc3cc(C(=O)NC)ccc3Cl)c(C(N)=O)c2N)C1 [Compound 19, (S)-1-(1-acryloylpyrrolidin-3-yl)-5-amino-3-((2-chloro-5-(methylcarbamoyl)phenyl)ethynyl)-1H-pyrazole-4-carboxamide] showed an IC50 [1] of less than 10 nM, an IC50 [5] of less than 10 nM and an IC50 [6] of less than 10 nM. The IC50 [2] was less than 10 nM and the IC50 [4] was 10 to 100 nM.
For CCN1CCN(c2ccc(Nc3cc(N(C)C(=O)Nc4c(Cl)c(OC)cc(OC)c4Cl)ncn3)cc2)CC1 [BGJ-398, reference compound], the anti-tumor activity [7] was “significant anti-tumor activity”.
For C=CC(=O)N1CC[C@H](n2nc(C#Cc3cc(Cl)ccc3F)c(C(N)=O)c2N)C1 [Compound 18, (S)-1-(1-acryloylpyrrolidin-3-yl)-5-amino-3-((5-chloro-2-fluorophenyl)ethynyl)-1H-pyrazole-4-carboxamide], the IC50 [1] was 10 to 100 nM, the IC50 [5] was less than 10 nM and the IC50 [6] was 10 to 100 nM. It also gave an IC50 [2] of 10 to 100 nM, an IC50 [3] of 10 to 100 nM and an IC50 [4] of less than 10 nM.
In the case of C=CC(=O)N1CC[C@H](n2nc(C#Cc3cc(OC)cc(OC)c3)c(C(N)=O)c2NCCOC)C1 [Compound 28, (S)-1-(1-acryloylpyrrolidin-3-yl)-3-((3,5-dimethoxyphenyl)ethynyl)-5-((2-methoxyethyl)amino)-1H-pyrazole-4-carboxamide], the IC50 [1] is reported as 10 to 100 nM, the IC50 [5] is reported as 10 to 100 nM and the IC50 [6] is reported as less than 10 nM. For the same molecule, the IC50 [2] was 10 to 100 nM, the IC50 [3] was less than 10 nM and the IC50 [4] was less than 10 nM.
Work on COc1cc(C#Cc2nn([C@H]3CCN(C#N)C3)c(N)c2C(N)=O)cc(OC)c1 [Compound 12, (S)-5-amino-1-(1-cyanopyrrolidin-3-yl)-3-((3,5-dimethoxyphenyl)ethynyl)-1H-pyrazole-4-carboxamide] yielded an IC50 [1] of 100 to 1000 nM, an IC50 [5] of less than 10 nM and an IC50 [6] of less than 10 nM. It also gave an IC50 [2] of 10 to 100 nM, an IC50 (Hep3B hepatoma cell line) of 100 to 1000 nM and an IC50 [3] of 100 to 1000 nM.
C=CC(=O)N1CC[C@H](n2nc(C#Cc3cc(OC)cc(C(=O)NC)c3)c(C(N)=O)c2N)C1 [Compound 20, (S)-1-(1-acryloylpyrrolidin-3-yl)-5-amino-3-((3-methoxy-5-(methylcarbamoyl)phenyl)ethynyl)-1H-pyrazole-4-carboxamide] showed an IC50 [1] of less than 10 nM, an IC50 [5] of less than 10 nM and an IC50 [6] of less than 10 nM. For the same molecule, the IC50 [2] was less than 10 nM and the IC50 [4] was 10 to 100 nM.
C=CC(=O)N1CC[C@@H](n2nc(C#Cc3cc(OC)cc(OC)c3)c(C(N)=O)c2N)C1 [Compound 13, (R)-1-(1-acryloylpyrrolidin-3-yl)-5-amino-3-((3,5-dimethoxyphenyl)ethynyl)-1H-pyrazole-4-carboxamide] gave an IC50 [1] of 10 to 100 nM, an IC50 [5] of less than 10 nM and an IC50 [6] of less than 10 nM. For the same molecule, the IC50 [2] was 10 to 100 nM.
Molecule C=CC(=O)N1CCC(Cn2nc(C#Cc3cc(OC)cc(OC)c3)c(C(N)=O)c2N)C1 (stereo not drawn) [Compound 16, 1-((1-acryloylpyrrolidin-3-yl)methyl)-5-amino-3-((3,5-dimethoxyphenyl)ethynyl)-1H-pyrazole-4-carboxamide] has an IC50 [1] of 10 to 100 nM, an IC50 [5] of 10 to 100 nM and an IC50 [6] of less than 10 nM. For the same molecule, the IC50 [2] was 10 to 100 nM.
With C=CC(=O)N1CC[C@H](n2nc(C#Cc3cc(OC)cc(OC)c3)c(C(N)=O)c2NCCN2CCOCC2)C1 [Compound 31, (S)-1-(1-acryloylpyrrolidin-3-yl)-3-((3,5-dimethoxyphenyl)ethynyl)-5-((2-morpholinoethyl)amino)-1H-pyrazole-4-carboxamide] the IC50 [1] was 10 to 100 nM, the IC50 [5] was less than 10 nM and the IC50 [6] was less than 10 nM. It also gave an IC50 (Hep3B hepatoma cell line) of 10 to 100 nM, an IC50 [3] of less than 10 nM and an IC50 [4] of less than 10 nM.
